For the test, the system named is LNCaP human prostate cancer cells. As to the kind of experiment: BrdU cell proliferation assay. Format: cell-based. Conditions: BrdU incorporation; for cell proliferation: LNCaP cells incubated with peptide, absorbance at 450 nm, at a concentration as lowest as 1 µM (Figure 1). As to the method:
Peptides of sequences SEQ ID NO: 48 and SEQ ID NO: 49 were used in the experiments. They were resuspended in dimethylsulfoxide (DMSO) to obtain a concentration of about 50 mM. They were then diluted in fetal calf serum (FCS) before being added to culture cells at the indicated concentrations.
FGC clone LNCaP human prostate cancer cells, commercialized by ATCC-LGC (Molsheim, France; ATCC Number: CRL-1740) were used.
The cells were incubated for 48 hours with the caspasin inhibitor peptides at the following concentrations: 0.1, 0.3, 0.9, 3, 10, 20, 30, 60 and 90 µM.
Cell proliferation was then assessed by quantifying the DNA precursor bromo-deoxyuridine (BrdU). This quantification was performed using the 5'-Bromo-2'-deoxy-uridine Labeling and Detection Kit (Roche) according to the manufacturer's instructions.
LNCaP prostatic cells were incubated for 24 hours in a 96-well plastic plate containing 200 µl RPMI 1640 medium complemented with 1.5 g/I sodium carbonate, 4.5 g/I glucose, 10 mM HEPES, 1.0 mM sodium pyruvate, 10% foetal bovine serum (FBS) and antibiotics. Peptides were pre-incubated for 1 h30 in 20 µl of FBS at 37°C, then added to 180 µl of RPMI. Medium from plates was released and the medium containing peptides was added to the cells. The cells were then cultured for another 24 hours. BrdU incorporation was then determined by measuring the absorbance at 450 nm on an ELISA plate reader.
In general terms: Dividing cells build labelled thymidine or BrdU into new DNA.

Results on 2 substances are retold here after EP2238984A1, “Caspasin inhibitor peptides” (INSTITUT NATIONAL DE LA RECHERCHE AGRONOMIQUE (INRA), priority 2009, dated 2010).

“SEQ ID NO: 48: caspasin inhibitor peptide originating from a caspasin reactive centre loop; sequence only in the sequence listing (ATGIGI)”: the cell proliferation entry is “drastic decrease of the cell proliferation”. For “SEQ ID NO: 49: caspasin inhibitor peptide originating from a caspasin reactive centre loop; sequence only in the sequence listing (FLMMITNKA)”, the cell proliferation result was “drastic decrease of the cell proliferation”. Also, the “concentration of peptide at which a plateau was reached (cell proliferation)” value (LNCaP cells, concentrations tested 0.1-90 µM (Figure 1)) was found to be 3 µM.
